# Literature values in patent publication US20100172993A1, “PARTICLES FOR DELIVERY OF ACTIVE INGREDIENTS, PROCESS OF MAKING AND COMPOSITIONS THEREOF” (priority 2006, published 2010).
# Details: topical insect repellent
compound,measurement,value
CCN(CC)C(=O)c1ccccc1 [NN Diethyl Benzamide],Absorption of the active ingredient in the blood plasma after dermal application,no absorption of the active ingredient in the blood plasma
